From US20230067406A1, “Herbicide Combinations Comprising Glufosinate and Flumioxazin” (BASF SE, priority 2020, published 2023) come the findings set out here.

This assay relates to Kochia (Bassia scoparia). The experiment in a line: Greenhouse post emergence treatment, herbicidal activity by visual control on a 0 to 100 scale. The class given is in vivo. Particulars: scale 0 to 100, mean of three replications. An excerpt: Synergism can be described as an interaction where the combined effect of two or more compounds is greater than the sum of the individual effects of each of the compounds. The presence of a synergistic effect in terms of percent control, between two mixing partners (X and Y) can be calculated using the Colby equation (Colby, S. R., 1967, Calculating Synergistic and Antagonistic Responses in Herbicide Combinations, Weeds, 15, 21-22):
When the observed combined control effect is greater than the expected (calculated) combined control effect (E), then the combined effect is synergistic.
Weed included Kochia (Bassia scoparia). However, the herbicidal effect afforded by the compounds, mixtures or compositions is not limited to these species. The analysis of synergism or antagonism between the mixtures or compositions was determined using Colby's equation. • Test Method: […]
Pots with 0.3 L of volume were filled with soil (SunGroco Horticulture, Agawam, MA 01001) to grow one plant per pot in the greenhouse until the desired developmental stage.
Environmental conditions inside the greenhouse were setup for 25° C., 75% relative humidity, and 12 h light day-1 with natural sunlight or 500 μmol m−1 s−1 PAR for cloudy days. […]
The test period extended to 2 to 21 days after treatment. During this time, the plants were tended, and their response to the individual treatments was evaluated. […]

Structures are written as SMILES.

In the case of `CP(=O)(O)CCC(N)C(=O)O` (racemic) [Glufosinate, (2RS)-2-amino-4-[hydroxy(methyl)phosphinoyl]butyric acid], the “Herbicidal activity against Kochia (21 DAT), Found” value (Glufosinate 420 g ai/ha alone) is 25.
Take `C#CCN1C(=O)COc2cc(F)c(N3C(=O)C4=C(CCCC4)C3=O)cc21` [Flumioxazin, flumioxazin]: the “Herbicidal activity against Kochia (21 DAT), Found” value (Flumioxazin 2.5 g ai/ha alone) is 4.
